Results on 52 sequences are retold here after the supplement of paper PMC11208160.
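Further: IS621 bridge recombinase in Escherichia coli cells against a fixed T5 target plasmid.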

The series is described as follows: recombinant UMI read abundance after kanamycin selection (control-corrected) (log10(CPM+1)); higher = more efficient recombination; extreme values may be limits of the assay; sequences stand for … in AGTGCAGAGAAAATCGGCCAGTTTTCTCTGCCTGCAGTCCGCATGCCGTGGGACCCCTTGGGTTCTAACCTGTTGCCTAGATTTATGCAGCGGACTGCCTTTCTCCCAAAGTGATAAACCGG…AGGTTGGTTTCACT; site = the 11-nt donor. A digest of the protocol: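 In a pooled Escherichia coli screen for the IS621 bridge recombinase, donor and donor-binding-loop pairs were each placed with a 12-nt UMI on a plasmid bearing a promoterless kanamycin gene. This library was co-electroporated with a target plasmid encoding a fixed target and T7-inducible recombinase, and cells were plated either on IPTG (0.07 mM) plus kanamycin or without selection, in two replicates each. Recombinant UMIs were PCR-amplified across the donor–target junction and sequenced, and counts were converted to CPM, averaged over replicates, scaled by control-derived factors and reported as log10(CPM+1).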
Consider “TCTGCGGCATGGACCGGTTTTCCCGGTAATCCGTATTTGCT (site TGTGCGGCTAG)”, for which the “recombinant UMI read abundance (log10)” value is 0.0168.
On to “TCTGCGGCATGGACCGGTTTTCCCGGTAATCCGTATTTGCT (site TTTGCGGCTAG)”, for which the “recombinant UMI read abundance (log10)” value is 0.0104.
As for “TCTGCTACATGGACCGGTTTTCCCGGTAATCCGTATTTGGT (site TCTGCTACTAC)”, the “recombinant UMI read abundance (log10)” value was determined as 0.0161.
“TCTGTGGCATGGACCGGTTTTCCCGGTAATCCGTATTTGCC (site TCTGTGGCTGG)”: the “recombinant UMI read abundance (log10)” value stood at 0.
With “TCTTAACCATGGACCGGTTTTCCCGGTAATCCGTATTTGTG (site TCTTAACCTCA)”, the “recombinant UMI read abundance (log10)” value turned out to be 0.0128.
Regarding “TCTTACCCATGGACCGGTTTTCCCGGTAATCCGTATTTGCA (site TCTTACCCTTG)”, the “recombinant UMI read abundance (log10)” value was determined as 0.
As to “TCTTACGCATGGACCGGTTTTCCCGGTAATCCGTATTTGGC (site TCTTACGCTGC)”, the “recombinant UMI read abundance (log10)” value was determined as 0.
Take “TCTTCAACATGGACCGGTTTTCCCGGTAATCCGTATTTGTG (site TCTTCAACTCA)”: the “recombinant UMI read abundance (log10)” value turned out to be 0.0171.
For the sequence “TCTTCTACATGGACCGGTTTTCCCGGTAATCCGTATTTGAC (site TCTTCTACTGT)”, the “recombinant UMI read abundance (log10)” value was found to be 0.
In the case of “TCTTCTGCATGGACCGGTTTTCCCGGTAATCCGTATTTGAT (site TCTTCTGCTAT)”, the “recombinant UMI read abundance (log10)” value came out at 0.
“TCTTTACCATGGACCGGTTTTCCCGGTAATCCGTATTTGGG (site TCTTTACCTCC)”: the “recombinant UMI read abundance (log10)” value was 0.0231.
On to “TCTTTACCATGGACCGGTTTTCCCGGTAATCCGTATTTGTA (site TCTTTACCTTA)”, for which the “recombinant UMI read abundance (log10)” value was determined as 0.00582.
As for “TCTTTGGCATGGACCGGTTTTCCCGGTAATCCGTATTTGTG (site TATTTGGCTCA)”, the “recombinant UMI read abundance (log10)” value amounted to 0.0246.
Consider “TCTTTGGCATGGACCGGTTTTCCCGGTAATCCGTATTTGTG (site TCTTTGGCTCA)”, for which the “recombinant UMI read abundance (log10)” value worked out at 0.0151.
Take “TCTTTGGCATGGACCGGTTTTCCCGGTAATCCGTATTTGTG (site TGTTTGGCTCA)”: the “recombinant UMI read abundance (log10)” value was 0.0149.
In the case of “TCTTTGGCATGGACCGGTTTTCCCGGTAATCCGTATTTGTG (site TTTTTGGCTCA)”, the “recombinant UMI read abundance (log10)” value came out at 0.0253.
Regarding “TGAAAATCATGGACCGGTTTTCCCGGTAATCCGTATTTGAT (site TGAAAATCTAT)”, the “recombinant UMI read abundance (log10)” value stood at 0.
Then “TGAAAGACATGGACCGGTTTTCCCGGTAATCCGTATTTGCA (site AGGAAGACTTG)”, with 2.91.
As for “TGAAAGACATGGACCGGTTTTCCCGGTAATCCGTATTTGCA (site TGAAAGACTTG)”, the figure is 2.45; as for “TGAACACCATGGACCGGTTTTCCCGGTAATCCGTATTTGAC (site TGAACACCTGT)”, 0.
Take “TGAACACCATGGACCGGTTTTCCCGGTAATCCGTATTTGAC (site TGCACACCTGT)”: the “recombinant UMI read abundance (log10)” value turned out to be 0.
Then “TGAACACCATGGACCGGTTTTCCCGGTAATCCGTATTTGAC (site TGGACACCTGT)”, with 0; and “TGAACACCATGGACCGGTTTTCCCGGTAATCCGTATTTGAC (site TGTACACCTGT)”, with 0; and “TGAAGAGCATGGACCGGTTTTCCCGGTAATCCGTATTTGCA (site TGAAGAGCTTG)”, with 2.54.
As for “TGAAGCGCATGGACCGGTTTTCCCGGTAATCCGTATTTGCT (site TGAAGCGCTAG)”, the figure is 2.01; as for “TGAATACCATGGACCGGTTTTCCCGGTAATCCGTATTTGTG (site TGAATACCTCA)”, 0.0076.
In the case of “TGACATTCATGGACCGGTTTTCCCGGTAATCCGTATTTGCT (site TGACATTCTAG)”, the “recombinant UMI read abundance (log10)” value was found to be 1.97.
Take “TGACCTCCATGGACCGGTTTTCCCGGTAATCCGTATTTGAA (site TGACCTCCTTT)”: the “recombinant UMI read abundance (log10)” value came out at 0.019.
For the sequence “TGACTATCATGGACCGGTTTTCCCGGTAATCCGTATTTGTA (site TGACTATCTTA)”, the “recombinant UMI read abundance (log10)” value turned out to be 2.58.
As to “TGACTCACATGGACCGGTTTTCCCGGTAATCCGTATTTGAC (site TGACTCACTGT)”, the “recombinant UMI read abundance (log10)” value amounted to 2.68.
Consider “TGAGAGGCATGGACCGGTTTTCCCGGTAATCCGTATTTGTA (site TGAGAGGCTTA)”, for which the “recombinant UMI read abundance (log10)” value worked out at 2.3.
Then “TGAGATACATGGACCGGTTTTCCCGGTAATCCGTATTTGAG (site TGAGATACTCT)”, with 2.26; and “TGAGGACCATGGACCGGTTTTCCCGGTAATCCGTATTTGCA (site TGAGGACCTTG)”, with 0; and “TGAGTTTCATGGACCGGTTTTCCCGGTAATCCGTATTTGAG (site TGAGTTTCTCT)”, with 1.89.
Then “TGATAGACATGGACCGGTTTTCCCGGTAATCCGTATTTGGA (site TGATAGACTTC)”, with 0.865.
Consider “TGATCAACATGGACCGGTTTTCCCGGTAATCCGTATTTGCT (site CGATCATCTAG)”, for which the “recombinant UMI read abundance (log10)” value was 0.
Turning to “TGATCAACATGGACCGGTTTTCCCGGTAATCCGTATTTGCT (site TGATCAACTAG)”, the “recombinant UMI read abundance (log10)” value was 0.879.
In the case of “TGATCATCATGGACCGGTTTTCCCGGTAATCCGTATTTGCT (site AGATCATCTAG)”, the “recombinant UMI read abundance (log10)” value worked out at 1.56.
Consider “TGATCATCATGGACCGGTTTTCCCGGTAATCCGTATTTGCT (site CGATCATCTAG)”, for which the “recombinant UMI read abundance (log10)” value came out at 1.63.
For the sequence “TGATCATCATGGACCGGTTTTCCCGGTAATCCGTATTTGCT (site GGATCATCTAG)”, the “recombinant UMI read abundance (log10)” value turned out to be 1.02.
Then “TGATCATCATGGACCGGTTTTCCCGGTAATCCGTATTTGCT (site TGATCATCTAG)”, with 0.945; and “TGATCCCCATGGACCGGTTTTCCCGGTAATCCGTATTTGTA (site TGATCCCCTTA)”, with 0.674; and “TGATCCCCATGGACCGGTTTTCCCGGTAATCCGTATTTGTA (site TGCTCCCCTTA)”, with 0.195.
In the case of “TGATCCCCATGGACCGGTTTTCCCGGTAATCCGTATTTGTA (site TGGTCCCCTTA)”, the “recombinant UMI read abundance (log10)” value amounted to 0.00213.
Then “TGATCCCCATGGACCGGTTTTCCCGGTAATCCGTATTTGTA (site TGTTCCCCTTA)”, with 0.28; and “TGATCCGCATGGACCGGTTTTCCCGGTAATCCGTATTTGCC (site TGATCCGCTGG)”, with 1.55.
On to “TGCAAACCATGGACCGGTTTTCCCGGTAATCCGTATTTGGG (site TGCAAACCTCC)”, for which the “recombinant UMI read abundance (log10)” value is 0.00989.
Consider “TGCAATCCATGGACCGGTTTTCCCGGTAATCCGTATTTGAA (site AGCAATCCTTT)”, for which the “recombinant UMI read abundance (log10)” value was 0.00584.
On to “TGCAATCCATGGACCGGTTTTCCCGGTAATCCGTATTTGAA (site CGCAATCCTTT)”, for which the “recombinant UMI read abundance (log10)” value was 0.257.
As to “TGCAATCCATGGACCGGTTTTCCCGGTAATCCGTATTTGAA (site GGCAATCCTTT)”, the “recombinant UMI read abundance (log10)” value was determined as 0.0354.
In the case of “TGCAATCCATGGACCGGTTTTCCCGGTAATCCGTATTTGAA (site TGCAATCCTTT)”, the “recombinant UMI read abundance (log10)” value was determined as 1.16.
Regarding “TGCACATCATGGACCGGTTTTCCCGGTAATCCGTATTTGCC (site TGCACATCTGG)”, the “recombinant UMI read abundance (log10)” value was 0.35.
